In publication PMC12615863, “Improving GRPR-targeting peptides for radiotheranostics application: insights from chelator modifications and α-methyl-L tryptophan substitution” (EJNMMI Radiopharmacy and Chemistry, 2025):

Experiments:
PC-3 cells = test: In vitro GRPR specificity assay (uptake with or without NOTA-PEG2-RM26 block); type: cell-based, human; details: 1 nM radiopeptide, 1 h at 37 °C, block with 1 µM NOTA-PEG2-RM26, n = 3
Protocol: After discarding the medium, the cells were washed with cold (4 °C) phosphate-buffered saline containing 1% w/v bovine serum albumin (PBS/BSA). The radiopeptides (Cf = 1 nM in 1 mL PBS/BSA) were added to all wells. A subset of wells was also treated with an excess of unlabeled GRPR-binding peptide NOTA-PEG2-RM26 (Bjäreback et al. [2025]) (Cf = 1 µM in 1 mL PBS/BSA) to block GRPR. After incubation for 1 h at 37 °C, the supernatant was removed, and the cells were washed and then collected by treating them with 1 M NaOH. The activity of the collected samples was measured with the gamma counter. This assay was performed in triplicate for each radiopeptide.

GRPR = target: T1, GRPR (Homo sapiens, UniProt P30550); design: method as in PMID 19480415; details: LigandTracer, PC-3 cells, previously published data, cited from earlier work
T1 construct: 3 × 10^6 PC-3 cells were seeded in 100 mm Petri dishes; host or cells: PC-3 human prostate cancer cells
T1 sequence (P30550 whole entry): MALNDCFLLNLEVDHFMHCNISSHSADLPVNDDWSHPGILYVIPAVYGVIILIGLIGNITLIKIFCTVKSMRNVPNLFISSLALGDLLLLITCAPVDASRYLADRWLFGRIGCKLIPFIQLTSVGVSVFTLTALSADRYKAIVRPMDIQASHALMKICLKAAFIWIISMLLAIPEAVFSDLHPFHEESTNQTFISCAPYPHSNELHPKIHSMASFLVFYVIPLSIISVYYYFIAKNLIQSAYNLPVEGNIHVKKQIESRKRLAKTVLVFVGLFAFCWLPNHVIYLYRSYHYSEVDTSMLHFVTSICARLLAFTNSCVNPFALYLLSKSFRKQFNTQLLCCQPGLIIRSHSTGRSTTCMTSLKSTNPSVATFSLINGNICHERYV

## CC(C)C[C@H](NC(=O)C[C@H](O)[C@H](CC(C)C)NC(=O)[C@H](Cc1c[nH]cn1)NC(=O)CN(C)C(=O)[C@@H](NC(=O)[C@H](C)NC(=O)[C@H](Cc1c[nH]c2ccccc12)NC(=O)[C@H](CCC(N)=O)NC(=O)[C@@H](Cc1ccccc1)NC(=O)CN1CCC(NC(=O)COCCOCCNC(=O)CN2CCN(CC(=O)O)CCN(CC(=O)O)CCN(CC(=O)O)CC2)CC1)C(C)C)C(N)=O [[^177Lu]Lu-PKB1, metal not drawn]
PC-3 cells
  in vitro binding specificity: GRPR-mediated activity uptake

## DOTAGA-PEG2-Pip-[Sar^11]RM26 [[^177Lu]Lu-AU-RM26-M2] [parent compound, AU-RM26-M2 (DOTAGA-PEG2-Pip-[Sar^11]RM26) labeled with Lu-177, previously reported by the authors]
GRPR; 1 and 5 nM
  ka1: 184000 M⁻¹ s⁻¹
  ka2: 1.08e+06 M⁻¹ s⁻¹
  kd1: 3.53 × 10^–5 1/s
  kd2: 5.94 × 10^–2 1/s
GRPR
  Bmax1 / Bmax2: 0.16
